Legend:
Format in all cases: biochemical
[1] = target: BlaC (β-lactamase of Mycobacterium tuberculosis) (Mycobacterium tuberculosis, UniProt P9WKD3, K250R)
[2] = target: T1, BlaC (β-lactamase of Mycobacterium tuberculosis) (Mycobacterium tuberculosis, UniProt P9WKD3, G144N)
[3] = target: BlaC (β-lactamase of Mycobacterium tuberculosis) (Mycobacterium tuberculosis, UniProt P9WKD3, R229S)
[4] = target: T1, BlaC (β-lactamase of Mycobacterium tuberculosis); remark: listed apart in the source

| Compound | nitrocefin hydrolysis progress curves with 10 μM clavulanic acid (reduced inhibi) [1] | nitrocefin hydrolysis progress curves with 10 μM clavulanic acid (reduced inhibi) [2] | nitrocefin hydrolysis progress curves with 10 μM clavulanic acid [3] | nitrocefin hydrolysis by purified enzyme [4] |
| --- | --- | --- | --- | --- |
| O=C(O)[C@H]1/C(=C/CO)O[C@@H]2CC(=O)N21 [clavulanic acid] | The G132N and K234R mutations convey resistance to inhibition, maintaining some level of activity even after prolonged exposure. | The G132N and K234R mutations convey resistance to inhibition, maintaining some level of activity even after prolonged exposure. | The R213S mutant was found to require more time than wt BlaC to reach full inhibition. |  |
| O=C(Cc1cccs1)N[C@@H]1C(=O)N2C(C(=O)O)=C(/C=C/c3ccc([N+](=O)[O-])cc3[N+](=O)[O-])CS[C@H]12 [nitrocefin] |  |  |  | is plotted for wild-type (WT) BlaC and single-amino-acid mutants |

Source: PMC8284444, “Two β-Lactamase Variants with Reduced Clavulanic Acid Inhibition Display Different Millisecond Dynamics” (Antimicrobial Agents and Chemotherapy, 2021)
